According to patent US20090226527A1, “Particulate-stabilized injectable pharmacutical compositions of posaconazole” (priority 2004, published 2009):
Converted amounts (≈) assume the structure as drawn.

Tested on: infectious agents (strains tested)
Assay: organism not typed
Type: cell-based

## CCC(C)n1ncn(-c2ccc(N3CCN(c4ccc(OCC5COC(Cn6cncn6)(c6ccc(Cl)cc6Cl)O5)cc4)CC3)cc2)c1=O (stereo not shown) [Itraconazole]
Absidia spp, read-out: Geometric Mean MIC
  MIC: 0.229 µg/mL (≈ 0.325 µM)
Absidia spp, read-out: MIC[90]
  MIC: 0.063 to 2 µg/mL (≈ 0.0893 to 2.83 µM)
Alternaria spp, read-out: Geometric Mean MIC
  MIC: 0.326 µg/mL (≈ 0.462 µM)
Alternaria spp, read-out: MIC[90]
  MIC: 1 µg/mL (≈ 1.42 µM)
Apophysomyces spp, read-out: Geometric Mean MIC
  MIC: 0.707 µg/mL (≈ 1 µM)
Apophysomyces spp, read-out: MIC[90]
  MIC: 0.031 to 8 µg/mL (≈ 0.0439 to 11.3 µM)
Arthroderma terrestre, Trichophyton terrestre, read-out: Geometric Mean MIC
  MIC: 0.25 µg/mL (≈ 0.354 µM)
Arthroderma terrestre, Trichophyton terrestre, read-out: MIC[90]
  MIC: 0.25 µg/mL (≈ 0.354 µM)
Aspergillus flavus, read-out: Geometric Mean MIC
  MIC: 0.213 µg/mL (≈ 0.302 µM)
Aspergillus flavus, read-out: MIC[90]
  MIC: 1 µg/mL (≈ 1.42 µM)
Aspergillus fumigatus, read-out: Geometric Mean MIC
  MIC: 0.397 µg/mL (≈ 0.563 µM)
Aspergillus fumigatus, read-out: MIC[90]
  MIC: 1 µg/mL (≈ 1.42 µM)
Aspergillus nidulans, read-out: Geometric Mean MIC
  MIC: 0.186 µg/mL (≈ 0.264 µM)
Aspergillus nidulans, read-out: MIC[90]
  MIC: 0.5 µg/mL (≈ 0.709 µM)
Aspergillus niger, read-out: Geometric Mean MIC
  MIC: 0.834 µg/mL (≈ 1.18 µM)
Aspergillus niger, read-out: MIC[90]
  MIC: 2 µg/mL (≈ 2.83 µM)
Aspergillus sydowii, read-out: Geometric Mean MIC
  MIC: 0.5 µg/mL (≈ 0.709 µM)
Aspergillus sydowii, read-out: MIC[90]
  MIC: 0.125 to 2 µg/mL (≈ 0.177 to 2.83 µM)
Aspergillus terreus, read-out: Geometric Mean MIC
  MIC: 0.229 µg/mL (≈ 0.325 µM)
Aspergillus terreus, read-out: MIC[90]
  MIC: 0.5 µg/mL (≈ 0.709 µM)
Aspergillus ustus, read-out: Geometric Mean MIC
  MIC: 0.906 µg/mL (≈ 1.28 µM)
Aspergillus ustus, read-out: MIC[90]
  MIC: 0.125 to 2 µg/mL (≈ 0.177 to 2.83 µM)
Bipolaris spp, read-out: Geometric Mean MIC
  MIC: 0.25 µg/mL (≈ 0.354 µM)
Bipolaris spp, read-out: MIC[90]
  MIC: 0.25 µg/mL (≈ 0.354 µM)
Bjerkandera adusta, read-out: Geometric Mean MIC
  MIC: 0.057 µg/mL (≈ 0.0808 µM)
Bjerkandera adusta, read-out: MIC[90]
  MIC: 0.063 µg/mL (≈ 0.0893 µM)
Blastomyces dermatitidis, read-out: Geometric Mean MIC
  MIC: 0.045 µg/mL (≈ 0.0638 µM)
Blastomyces dermatitidis, read-out: MIC[90]
  MIC: 2 µg/mL (≈ 2.83 µM)
Candida albicans, read-out: Geometric Mean MIC
  MIC: 0.064 µg/mL (≈ 0.0907 µM)
Candida albicans, read-out: MIC[90]
  MIC: 0.25 µg/mL (≈ 0.354 µM)
Candida dubliniensis, read-out: Geometric Mean MIC
  MIC: 0.107 µg/mL (≈ 0.152 µM)
Candida dubliniensis, read-out: MIC[90]
  MIC: 0.5 µg/mL (≈ 0.709 µM)
Candida tropicalis, read-out: Geometric Mean MIC
  MIC: 0.167 µg/mL (≈ 0.237 µM)
Candida tropicalis, read-out: MIC[90]
  MIC: 0.5 µg/mL (≈ 0.709 µM)
Clavispora lusitaniae, Candida lusitaniae, read-out: Geometric Mean MIC
  MIC: 0.216 µg/mL (≈ 0.306 µM)
Clavispora lusitaniae, Candida lusitaniae, read-out: MIC[90]
  MIC: 1 µg/mL (≈ 1.42 µM)
Coccidioides immitis, read-out: Geometric Mean MIC, Coccidioides immitis
  MIC: 0.198 µg/mL (≈ 0.281 µM)
Coccidioides immitis, read-out: MIC[90], Coccidioides immitis
  MIC: 0.25 µg/mL (≈ 0.354 µM)
Cryptococcus neoformans, read-out: Geometric Mean MIC
  MIC: 0.444 µg/mL (≈ 0.629 µM)
Cryptococcus neoformans, read-out: MIC[90]
  MIC: 4 µg/mL (≈ 5.67 µM)
Curvularia spp, read-out: Geometric Mean MIC
  MIC: 0.5 µg/mL (≈ 0.709 µM)
Curvularia spp, read-out: MIC[90]
  MIC: 0.5 µg/mL (≈ 0.709 µM)
Debaryomyces hansenii, Candida famata, read-out: Geometric Mean MIC
  MIC: 0.348 µg/mL (≈ 0.493 µM)
Debaryomyces hansenii, Candida famata, read-out: MIC[90]
  MIC: 1 µg/mL (≈ 1.42 µM)
Diutina rugosa, Candida rugosa, read-out: Geometric Mean MIC
  MIC: 0.196 µg/mL (≈ 0.278 µM)
Diutina rugosa, Candida rugosa, read-out: MIC[90]
  MIC: 4 µg/mL (≈ 5.67 µM)
Dujonia zeylanoides, Candida zeylanoides, read-out: Geometric Mean MIC
  MIC: 0.105 µg/mL (≈ 0.149 µM)
Dujonia zeylanoides, Candida zeylanoides, read-out: MIC[90]
  MIC: 0.031 to 0.5 µg/mL (≈ 0.0439 to 0.709 µM)
Epidermophyton floccosum, read-out: Geometric Mean MIC
  MIC: 0.088 µg/mL (≈ 0.125 µM)
Epidermophyton floccosum, read-out: MIC[90]
  MIC: 32 µg/mL (≈ 45.3 µM)
Exophiala dermatidis, read-out: Geometric Mean MIC
  MIC: 1 µg/mL (≈ 1.42 µM)
Exophiala dermatidis, read-out: MIC[90]
  MIC: 1 µg/mL (≈ 1.42 µM)
Exophiala dermatitidis, Wangiella dermatitidis, read-out: Geometric Mean MIC
  MIC: 0.5 µg/mL (≈ 0.709 µM)
Exophiala dermatitidis, Wangiella dermatitidis, read-out: MIC[90]
  MIC: 0.063 to 1 µg/mL (≈ 0.0893 to 1.42 µM)
Exophiala jeanselmei, read-out: Geometric Mean MIC
  MIC: 0.467 µg/mL (≈ 0.662 µM)
Exophiala jeanselmei, read-out: MIC[90]
  MIC: 1 µg/mL (≈ 1.42 µM)
Exophiala moniliae, read-out: Geometric Mean MIC
  MIC: 0.031 µg/mL (≈ 0.0439 µM)
Exophiala moniliae, read-out: MIC[90]
  MIC: 0.031 µg/mL (≈ 0.0439 µM)
Fonsecae pedrosoi, read-out: Geometric Mean MIC
  MIC: 0.063 µg/mL (≈ 0.0893 µM)
Fonsecae pedrosoi, read-out: MIC[90]
  MIC: 0.008 to 0.5 µg/mL (≈ 0.0113 to 0.709 µM)
Fusarium spp, read-out: Geometric Mean MIC
  MIC: 13.3 µg/mL (≈ 18.8 µM)
Fusarium spp, read-out: MIC[90]
  MIC: 16 µg/mL (≈ 22.7 µM)
Hansenula anomala, Pichia anomala, read-out: Geometric Mean MIC
  MIC: 0.375 µg/mL (≈ 0.531 µM)
Hansenula anomala, Pichia anomala, read-out: MIC[90]
  MIC: 1 µg/mL (≈ 1.42 µM)
Histoplasma capsulatum, read-out: Geometric Mean MIC, Histoplasma capsulatum
  MIC: 0.018 µg/mL (≈ 0.0255 µM)
Histoplasma capsulatum, read-out: MIC[90], Histoplasma capsulatum
  MIC: 0.063 µg/mL (≈ 0.0893 µM)
Kluyveromyces marxianus, Candida kefyr, read-out: Geometric Mean MIC
  MIC: 0.188 µg/mL (≈ 0.266 µM)
Kluyveromyces marxianus, Candida kefyr, read-out: MIC[90]
  MIC: 0.5 µg/mL (≈ 0.709 µM)
Kluyveromyces marxianus, read-out: Geometric Mean MIC
  MIC: 0.07 µg/mL (≈ 0.0992 µM)
Kluyveromyces marxianus, read-out: MIC[90]
  MIC: 0.031 to 0.125 µg/mL (≈ 0.0439 to 0.177 µM)
Lodderomyces parapsilosis, Candida parapsilosis, read-out: Geometric Mean MIC
  MIC: 0.161 µg/mL (≈ 0.228 µM)
Lodderomyces parapsilosis, Candida parapsilosis, read-out: MIC[90]
  MIC: 0.5 µg/mL (≈ 0.709 µM)
Meyerozyma guilliermondii, Candida guilliermondii, read-out: Geometric Mean MIC
  MIC: 0.479 µg/mL (≈ 0.679 µM)
Meyerozyma guilliermondii, Candida guilliermondii, read-out: MIC[90]
  MIC: 1 µg/mL (≈ 1.42 µM)
Microsporum audouinii, read-out: Geometric Mean MIC
  MIC: 0.125 µg/mL (≈ 0.177 µM)
Microsporum audouinii, read-out: MIC[90]
  MIC: 0.125 µg/mL (≈ 0.177 µM)
Microsporum canis, read-out: Geometric Mean MIC
  MIC: 0.041 µg/mL (≈ 0.0581 µM)
Microsporum canis, read-out: MIC[90]
  MIC: 2 µg/mL (≈ 2.83 µM)
Mucor spp, read-out: Geometric Mean MIC
  MIC: 2.38 µg/mL (≈ 3.37 µM)
Mucor spp, read-out: MIC[90]
  MIC: 16 µg/mL (≈ 22.7 µM)
Nakaseomyces glabratus, Candida glabrata, read-out: Geometric Mean MIC
  MIC: 0.853 µg/mL (≈ 1.21 µM)
Nakaseomyces glabratus, Candida glabrata, read-out: MIC[90]
  MIC: 4 µg/mL (≈ 5.67 µM)
Nannizzia fulva, Microsporum fulvum, read-out: Geometric Mean MIC
  MIC: 4 µg/mL (≈ 5.67 µM)
Nannizzia fulva, Microsporum fulvum, read-out: MIC[90]
  MIC: 4 µg/mL (≈ 5.67 µM)
Nannizzia gypsea, Microsporum gypseum, read-out: Geometric Mean MIC
  MIC: 0.044 µg/mL (≈ 0.0624 µM)
Nannizzia gypsea, Microsporum gypseum, read-out: MIC[90]
  MIC: 0.016 to 0.5 µg/mL (≈ 0.0227 to 0.709 µM)
Nannizzia persicolor, Microsporum persicolor, read-out: Geometric Mean MIC
  MIC: 0.5 µg/mL (≈ 0.709 µM)
Nannizzia persicolor, Microsporum persicolor, read-out: MIC[90]
  MIC: 0.5 µg/mL (≈ 0.709 µM)
Paecilomyces spp, read-out: Geometric Mean MIC
  MIC: 0.64 µg/mL (≈ 0.907 µM)
Paecilomyces spp, read-out: MIC[90]
  MIC: 2 µg/mL (≈ 2.83 µM)
Papiliotrema laurentii, Cryptococcus laurentii, read-out: Geometric Mean MIC
  MIC: 0.397 µg/mL (≈ 0.563 µM)
Papiliotrema laurentii, Cryptococcus laurentii, read-out: MIC[90]
  MIC: 0.25 to 0.5 µg/mL (≈ 0.354 to 0.709 µM)
Paracoccidioides brasiliensis, read-out: Geometric Mean MIC, Paracoccidioides brasiliensis
  MIC: 0.025 µg/mL (≈ 0.0354 µM)
Paracoccidioides brasiliensis, read-out: MIC[90], Paracoccidioides brasiliensis
  MIC: 0.063 µg/mL (≈ 0.0893 µM)
Penicillium spp, read-out: Geometric Mean MIC
  MIC: 0.853 µg/mL (≈ 1.21 µM)
Penicillium spp, read-out: MIC[90]
  MIC: 2 µg/mL (≈ 2.83 µM)
Pichia kudriavzevii, Candida krusei, read-out: Geometric Mean MIC
  MIC: 0.576 µg/mL (≈ 0.816 µM)
Pichia kudriavzevii, Candida krusei, read-out: MIC[90]
  MIC: 1 µg/mL (≈ 1.42 µM)
Pleurothecium obovoideum, Ramichloridium obovoideum, read-out: Geometric Mean MIC
  MIC: 0.016 µg/mL (≈ 0.0227 µM)
Pleurothecium obovoideum, Ramichloridium obovoideum, read-out: MIC[90]
  MIC: 0.016 µg/mL (≈ 0.0227 µM)
Rhizomucor spp, read-out: Geometric Mean MIC
  MIC: 0.016 µg/mL (≈ 0.0227 µM)
Rhizomucor spp, read-out: MIC[90]
  MIC: 0.016 µg/mL (≈ 0.0227 µM)
Rhizopus spp, read-out: Geometric Mean MIC
  MIC: 3.28 µg/mL (≈ 4.65 µM)
Rhizopus spp, read-out: MIC[90]
  MIC: 16 µg/mL (≈ 22.7 µM)
Saccharomyces cerevisiae, read-out: Geometric Mean MIC
  MIC: 0.418 µg/mL (≈ 0.592 µM)
Saccharomyces cerevisiae, read-out: MIC[90]
  MIC: 2 µg/mL (≈ 2.83 µM)
Scedosporium apiospermum, read-out: Geometric Mean MIC
  MIC: 1.34 µg/mL (≈ 1.9 µM)
Scedosporium apiospermum, read-out: MIC[90]
  MIC: 32 µg/mL (≈ 45.3 µM)
Scedosporium boydii, Pseudallescheria boydii, read-out: Geometric Mean MIC
  MIC: 0.506 µg/mL (≈ 0.717 µM)
Scedosporium boydii, Pseudallescheria boydii, read-out: MIC[90]
  MIC: 1 µg/mL (≈ 1.42 µM)
Sporothrix schenckii, read-out: Geometric Mean MIC
  MIC: 0.302 µg/mL (≈ 0.428 µM)
Sporothrix schenckii, read-out: MIC[90]
  MIC: 0.5 µg/mL (≈ 0.709 µM)
Trichophyton mentagrophytes, read-out: Geometric Mean MIC
  MIC: 0.041 µg/mL (≈ 0.0581 µM)
Trichophyton mentagrophytes, read-out: MIC[90]
  MIC: 0.25 µg/mL (≈ 0.354 µM)
Trichophyton rubrum, Trichophyton raubitschekii, read-out: Geometric Mean MIC
  MIC: 0.25 µg/mL (≈ 0.354 µM)
Trichophyton rubrum, Trichophyton raubitschekii, read-out: MIC[90]
  MIC: 0.25 µg/mL (≈ 0.354 µM)
Trichophyton rubrum, read-out: Geometric Mean MIC
  MIC: 0.074 µg/mL (≈ 0.105 µM)
Trichophyton rubrum, read-out: MIC[90]
  MIC: 0.25 µg/mL (≈ 0.354 µM)
Trichophyton soudanense, read-out: Geometric Mean MIC
  MIC: 4 µg/mL (≈ 5.67 µM)
Trichophyton soudanense, read-out: MIC[90]
  MIC: 4 µg/mL (≈ 5.67 µM)
Trichophyton tonsurans, read-out: Geometric Mean MIC
  MIC: 0.036 µg/mL (≈ 0.051 µM)
Trichophyton tonsurans, read-out: MIC[90]
  MIC: 0.063 µg/mL (≈ 0.0893 µM)
Trichosporon spp, read-out: Geometric Mean MIC
  MIC: 1.12 µg/mL (≈ 1.59 µM)
Trichosporon spp, read-out: MIC[90]
  MIC: 0.5 to 2 µg/mL (≈ 0.709 to 2.83 µM)
